Laboratory results from publication PMC10364317, “Regulation of indole‐3‐acetic acid biosynthesis and consequences of auxin production deficiency in Serratia plymuthica” (Microbial Biotechnology, 2023).
Entries after “also recorded” stand apart in the source; their conditions may differ. Where two headings read alike, the source gives them in different places.

Columns and labels:
HpaAA153 = HpaAA153 (Serratia plymuthica, UniProt A0A7T2WCJ6); assay: Isothermal titration calorimetry of HpaAA153 with ligands; assay type: binding, Serratia plymuthica A153
Chain of HpaAA153 (A0A7T2WCJ6 entry or part of it): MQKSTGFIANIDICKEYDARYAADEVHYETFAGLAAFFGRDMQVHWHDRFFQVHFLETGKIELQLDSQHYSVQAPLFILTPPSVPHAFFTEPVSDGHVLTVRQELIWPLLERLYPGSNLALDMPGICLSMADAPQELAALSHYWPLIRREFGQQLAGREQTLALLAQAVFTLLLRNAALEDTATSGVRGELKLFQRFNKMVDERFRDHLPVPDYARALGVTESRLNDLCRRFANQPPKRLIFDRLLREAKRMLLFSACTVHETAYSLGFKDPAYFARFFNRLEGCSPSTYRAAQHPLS
Experimental: (§1) Measurements were made using a VP‐ITC microcalorimeter (MicroCal, Inc., Northampton, MA) at 10–25°C. HpaAA153 and HpaRA153 were dialyzed into 50 mM Tris, 300 mM NaCl, 10% (v/v) glycerol, 2 mM β‐mercaptoethanol, pH 8.0. Alternatively, TyrRA153 was dialyzed into 5 mM Tris, 5 mM PIPES, 5 mM MES, 150 mM NaCl, 10 mM MgCl2, 10 mM β‐mercaptoethanol, 10% (v/v) glycerol, pH 7.5. Proteins at 5–50 μM were placed into the sample cell and titrated with 3.2–12.8 μL aliquots of 0.5–10 mM ligand solutions made up in the corresponding dialysis buffers. For DNA binding studies, wild‐type and mutant oligonucleotides corresponding to the TyrR box were synthesized and annealed. Briefly, an equimolar mixture of 200 μM of each complementary oligonucleotide was prepared in 10 mM Tris, 50 mM NaCl, 1 mM EDTA, pH 7.5. This mixture was subsequently incubated at 95°C for 5 min, chilled on ice and dialyzed in the same buffer used for TyrRA153 ITC studies. A typical experiment consisted in an injection of 3.2–12.8 μL aliquots of 100 μM DNA into a 5–20 μM protein solution in the absence and presence of TyrR ligands (e.g. 1 mM L‐Trp; 1 mM L‐Phe; 0.1 mM L‐Tyr; 0.5 mM ATP). Protein‐DNA interaction studies were done at 10°C. In all cases, the mean enthalpies measured from the injection of the ligand in the buffer were subtracted from raw titration data before data analysis with the ORIGIN software (MicroCal).

HpaRA153 = assay: Isothermal titration calorimetry of HpaRA153 with ligands; assay type: binding, Serratia plymuthica A153
Experimental: as §1

TyrRA153 [1] = molecular target: T1, TyrRA153 (Serratia plymuthica, UniProt A0A318P557); assay: Isothermal titration calorimetry of TyrRA153 with ligands; assay type: binding, Serratia plymuthica A153; conditions: for competition with L-Tyr for binding at the ATP-dependent site of TyrRA153: 10 mM competitor, 1 mM ATP, titration with 1 mM L-Tyr
Experimental: as §1

[2] = design: method as in Patten et al., [2013]; conditions: ref Patten et al., [2013]; cited from earlier work
ipdc promoter = assay: β-Galactosidase assay of the ipdc promoter fusion (P ipdc::lacZ; pMAMV302); assay type: cell-based, Serratia plymuthica A153; conditions: for induction of ipdc gene expression compared to the same medium lacking the ligand: minimal medium with 15 mM glucose, 1 mM ligand, 24 h
Experimental: Expression of the lacZ reporter gene was monitored during growth using 2‐nitrophenyl β‐D‐galactopyranoside (ONPG; Merck) as a substrate, as described previously (Miller, [1972]). The transcriptional fusion assays were carried out using S. plymuthica A153 LacZ (control) or derived mutants.

TyrRA153 [3] = molecular target: T1, TyrRA153; assay: Microcalorimetric titrations of TyrRA153 with 26-bp DNA oligomers of the ipdc promoter (TyrR box); assay type: binding, Serratia plymuthica A153; conditions: wild-type ipdc promoter oligomer; for increase of TyrRA153 DNA binding affinity: saturating ligand concentration
Experimental: as §1

TyrR (TyrRA153) [4] = molecular target: T2, TyrR (TyrRA153) (Serratia plymuthica A153, UniProt A0A318P557 1-523); assay: ITC; no amino acid or ATP; 10 mM MgCl2; ITC: 5 mM Tris, 5 mM PIPES, 5 mM MES, 150 mM NaCl, 10 mM MgCl2, 10 mM beta-mercaptoethanol, 10% glycerol, pH 7.5, 10 C; 100 uM DNA injected into 5-20 uM TyrR; conditions: protein: recombinant; tags: N-terminal His6; chain copies: 2; blunt
T2 sequence: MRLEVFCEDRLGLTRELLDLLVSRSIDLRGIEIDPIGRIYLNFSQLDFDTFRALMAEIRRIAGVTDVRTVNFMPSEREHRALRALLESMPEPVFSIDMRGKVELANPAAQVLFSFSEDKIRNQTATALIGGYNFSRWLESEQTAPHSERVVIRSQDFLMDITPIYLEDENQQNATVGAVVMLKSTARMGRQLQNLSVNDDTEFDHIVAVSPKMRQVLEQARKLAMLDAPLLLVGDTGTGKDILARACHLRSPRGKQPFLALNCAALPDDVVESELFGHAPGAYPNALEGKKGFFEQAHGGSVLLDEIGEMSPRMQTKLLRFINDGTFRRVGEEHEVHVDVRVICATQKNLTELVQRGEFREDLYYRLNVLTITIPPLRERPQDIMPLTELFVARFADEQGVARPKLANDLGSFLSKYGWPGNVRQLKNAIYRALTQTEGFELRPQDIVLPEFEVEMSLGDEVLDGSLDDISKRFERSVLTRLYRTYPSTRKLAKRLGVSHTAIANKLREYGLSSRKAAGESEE

TyrR (TyrRA153) [5] = molecular target: T2, TyrR (TyrRA153); assay: ITC; L-Phe (saturating; e.g. 1 mM); 10 mM MgCl2; ITC: 5 mM Tris, 5 mM PIPES, 5 mM MES, 150 mM NaCl, 10 mM MgCl2, 10 mM beta-mercaptoethanol, 10% glycerol, pH 7.5, 10 C; 100 uM DNA injected into 5-20 uM TyrR; conditions: protein: recombinant; tags: N-terminal His6; chain copies: 2; blunt
TyrR (TyrRA153) [6] = molecular target: T2, TyrR (TyrRA153); assay: ITC; L-Tyr + ATP (saturating; e.g. 0.1 mM L-Tyr, 0.5 mM ATP); 10 mM MgCl2; ITC: 5 mM Tris, 5 mM PIPES, 5 mM MES, 150 mM NaCl, 10 mM MgCl2, 10 mM beta-mercaptoethanol, 10% glycerol, pH 7.5, 10 C; 100 uM DNA injected into 5-20 uM TyrR; conditions: protein: recombinant; tags: N-terminal His6; chain copies: 2; blunt
[7] = ITC, ligand alone (absence of ATP for amino acids)
[8] = ITC, ligand alone (absence of ATP for amino acids), read-out: K D
[9] = ITC, in the presence of ATP, read-out: K D

O=C(O)Cc1ccc(O)c(O)c1 [3,4HPA, 3,4‐dihydroxyphenylacetic acid]
binding to HpaAA153 as determined by isothermal titration calorimetry (HpaAA153): did not bind | binding to HpaRA153 as determined by isothermal titration calorimetry (HpaRA153): unable to observe the binding | binding to HpaRA153 as determined by isothermal titration calorimetry (HpaRA153; listed as 3,4-dihydroxyphenylacetic acid): did not bind

O=C(O)Cc1cccc(O)c1 [3-hydroxyphenylacetic acid]
binding to HpaRA153 as determined by isothermal titration calorimetry (HpaRA153): did not bind

Cc1cccc(C(=O)O)c1 [3-methylbenzoic acid]
binding to HpaAA153 as determined by isothermal titration calorimetry (HpaAA153): did not bind | binding to HpaRA153 as determined by isothermal titration calorimetry (HpaRA153): did not bind

O=C(O)Cc1ccc(O)cc1 [4HPA, 4‐hydroxyphenylacetic acid]
Kd (HpaAA153): 28.5 µM | binding to HpaRA153 as determined by isothermal titration calorimetry (HpaRA153): unable to observe the binding

O=C(O)c1ccc(O)cc1 [4‐hydroxybenzoic acid]
Kd (HpaAA153): 28.5 ± 2 µM | ΔH (HpaAA153; ITC, One binding site model): -0.4 ± 0.03 kcal/mol | binding to HpaRA153 as determined by isothermal titration calorimetry (HpaRA153): did not bind

Nc1ncnc2c1ncn2[C@@H]1O[C@H](COP(=O)(O)OP(=O)(O)OP(=O)(O)O)[C@@H](O)[C@H]1O [ATP]
ΔH (TyrRA153 [1]; [7]): -22.9 ± 1.5 kcal/mol | Kd (TyrRA153 [1]; [8]): 16 ± 0.7 µM

O=C(O)c1ccccc1 [Benzoic acid]
binding to HpaAA153 as determined by isothermal titration calorimetry (HpaAA153): did not bind | binding to HpaRA153 as determined by isothermal titration calorimetry (HpaRA153): did not bind

O=C(O)Cc1c[nH]c2ccccc12 [IAA, Indole‐3‐acetic acid]
binding to HpaAA153 as determined by isothermal titration calorimetry (HpaAA153): unable to observe IAA binding | binding to HpaAA153 as determined by isothermal titration calorimetry (HpaAA153; listed as Indole-3-acetic acid): did not bind | binding to HpaRA153 as determined by isothermal titration calorimetry (HpaRA153): unable to observe IAA binding | binding to HpaRA153 as determined by isothermal titration calorimetry (HpaRA153; listed as Indole-3-acetic acid): did not bind | pKa [2]: 4.8 | effect of supplementation on ipdc expression (ipdc promoter; 0.25 mM and 1 mM, wild-type A153 and ipdc mutant): did not result in altered ipdc expression | induction of ipdc gene expression compared to the same medium lacking the ligand (ipdc promoter; 30°C): No changes in ipdc expression | binding to TyrRA153 as determined by isothermal titration calorimetry (TyrRA153 [1]): did not bind

O=C(O)C(=O)Cc1c[nH]c2ccccc12 [Indole-3-pyruvic acid]
binding to HpaAA153 as determined by isothermal titration calorimetry (HpaAA153): did not bind | binding to HpaRA153 as determined by isothermal titration calorimetry (HpaRA153): did not bind

N[C@@H](Cc1ccccc1)C(=O)O [L‐Phe, L‐Phenylalanine]
increase of TyrRA153 DNA binding affinity (TyrRA153 [3]): 2.6 fold | induction of ipdc gene expression compared to the same medium lacking the ligand (ipdc promoter; 30°C): 5.1 fold | competition with L-Tyr for binding at the ATP-dependent site of TyrRA153 (TyrRA153 [1]; ITC): compete with L‐Tyr for binding | ΔH (TyrRA153 [1]; ITC, in the presence of ATP): -0.2 ± 0.01 kcal/mol | Kd (TyrRA153 [1]; [9]): 193 ± 24 µM | K D (TyrRA153 [1]; [7]): bound; also recorded: Binding ^a | ΔH (TyrRA153 [1]; [7]): Binding ^a

N[C@@H](Cc1c[nH]c2ccccc12)C(=O)O [L‐Trp, L‐Tryptophan]
reduction of TyrRA153 DNA affinity (TyrRA153 [3]; presence of ligand): 2.3 fold | effect of supplementation on ipdc transcription (ipdc promoter; LB medium, different concentrations, 30°C): did not result in increased ipdc transcription | induction of ipdc gene expression compared to the same medium lacking the ligand (ipdc promoter; 30°C): no changes in ipdc expression | competition with L-Tyr for binding at the ATP-dependent site of TyrRA153 (TyrRA153 [1]; ITC): compete with L‐Tyr for binding | ΔH 1 (TyrRA153 [1]; ITC, in the presence of ATP): -1.8 ± 0.3 kcal/mol | ΔH 2 (TyrRA153 [1]; ITC, in the presence of ATP): -7.9 ± 1.7 kcal/mol | Kd (TyrRA153 [1]; ITC, in the presence of ATP, read-out: K D1): 1640 µM | Kd (TyrRA153 [1]; ITC, in the presence of ATP, read-out: K D2): 2060 µM | K D (TyrRA153 [1]; [7]): bound | ΔH (TyrRA153 [1]; [7]): -1.6 ± 0.5 kcal/mol | Kd (TyrRA153 [1]; [8]): 2680 ± 670 µM

N[C@@H](Cc1ccc(O)cc1)C(=O)O [L‐Tyr, L‐Tyrosine]
increase of TyrRA153 DNA binding affinity (TyrRA153 [3]): 2.4 fold | induction of ipdc gene expression compared to the same medium lacking the ligand (ipdc promoter; 30°C): 11.0 fold | ΔH (TyrRA153 [1]; ITC, in the presence of ATP): -6.8 ± 0.1 kcal/mol | Kd (TyrRA153 [1]; [9]): 6 ± 0.2 µM | K D (TyrRA153 [1]; [7]): No binding | ΔH (TyrRA153 [1]; [7]): No binding

O=C(O)Cc1ccccc1 [PAA, phenylacetic acid]
binding to HpaAA153 as determined by isothermal titration calorimetry (HpaAA153): did not recognize | binding to HpaAA153 as determined by isothermal titration calorimetry (HpaAA153; listed as Phenylacetic acid): did not bind | binding to HpaRA153 as determined by isothermal titration calorimetry (HpaRA153): did not recognize | binding to HpaRA153 as determined by isothermal titration calorimetry (HpaRA153; listed as Phenylacetic acid): did not bind

O=C(O)c1ccccc1O [Salicylic acid]
binding to HpaAA153 as determined by isothermal titration calorimetry (HpaAA153): did not bind | binding to HpaRA153 as determined by isothermal titration calorimetry (HpaRA153): did not bind

B1: Pipdc-mut-ITC (mutant TyrR box) (dsDNA)
DNA 1: CCCCGACGTGGGAGCCGCCGTGTCAA
DNA 2: TTGACACGGCGGCTCCCACGTCGGGG
binding result (TyrR (TyrRA153) [4]): no binding

B2: Pipdc-wt-ITC (wild-type TyrR box) (dsDNA)
DNA 1: CCCCTGTAAAGGAGCCATTACATCAA
DNA 2: TTGATGTAATGGCTCCTTTACAGGGG
Kd (TyrR (TyrRA153) [4]): 0.193 ± 0.02 µM | Kd (TyrR (TyrRA153) [5]): 0.074 ± 0.01 µM | Kd (TyrR (TyrRA153) [6]): 0.081 ± 0.01 µM
